pIC50: −log10 of the molar value. Where two headings read alike, the source gives them in different places.
What was measured:
[1] = biological target: CDK6/D3 (Homo sapiens (Human), UniProt Q00534); test: CDKs inhibition assay (ADP-Glo Kinase Assay), CDK6
Procedure: (2) Preparation of Test Compound:
(§1) a. Test compounds at a certain concentration were taken respectively, and diluted with kinase reaction buffer I to compound solutions with a final concentration of 50 μM;
(§2) 4. Preparation of reaction substrate and ATP mixed solution:
a. Preparation of ATP solution:
(§3) 200 μl of 0.1 mM ATP solution: 2 μl of 10 mM ATP was added into 198 μl kinase reaction buffer I;
(§4) 300 μl of 50 μl M ATP solution: 150 μl kinase reaction buffer I was added into 150 μl of above-mentioned 0.1 mM ATP solution;
(§5) b. Preparation of 300 μl reaction substrate solution:
(§6) 150 μl of 1 μg/μl reaction substrate stock solution was added into 150 μl kinase reaction buffer I and uniformly mixed;
(§7) c. Above-mentioned a/b solutions were mixed to obtain mixed solutions respectively.
(§8) 2 μl compound solution at each concentration was added into a 384-well plate respectively, and centrifuged for 3 min;
(§9) 4 μl kinase solution was added into each well, centrifuged at 5000 rpm for 10 min at 18° C., and shaked well for 10 min on a shaker;
(§10) 4 μl substrate and ATP mixed solution were added into each well, centrifuged at 5000 rpm for 10 min at 18° C., and shaked well for 90 min on a shaker at 37° C.;
(§11) The 384 well plate was removed and allow to achieve room temperature;
(§12) 10 μl ADP-Glo reagent was added into each well, centrifuged at 5000 rpm for 10 min at 18° C., and shaked well for 40 min on a shaker at 25° C. to terminate the reaction;
(§13) 20 μl kinase assay reagent was added into each well, centrifuged at 5000 rpm for 10 min at 18° C., and shaked well for 30 min on a shaker at 25° C.;
(§14) Fluorescence values were read by M1000pro microplate reader.
(§15) The inhibition rate of each compound at each concentration point was calculated according to the following equation, and IC50 value was calculated by curve fitting using GraphPad Prism 5 software.

[2] = system: human breast cancer cell line MDB-MA-231; test: Proliferation inhibition assay on human breast cancer cell line MDA-MB-231 (DAPI staining, In Cell Analyzer); format: cell-based
Procedure: Experimental Preparation:
1. MDA-MB-231 cells were seeded at 4000 cells/100 ul/well to a 96-well plate with black transparent bottom, and cultured overnight at 37° C.;
3. Fixation: the cell plate was taken, medium was removed, and 50 μl of 4% paraformaldehyde was added to each well and fixed 10 min;
4.50 μl 0.1 M glycine was added to neutralize for 10 min;
6. Permeabilization: 50 ul of 0.2% TritonX-100 was added to each well and permeabilized at room temperature for 10 min;
8.5 mg/mL DAPI stock solution was diluted at 1:5000 (final concentration 1 μg/ml) and the cells were stained at room temperature for 20 min.
10. The plate was scanned and analyzed on In cell analyser.

[3] = biological target: CDK4/D3 (Homo sapiens (Human), UniProt P11802); test: CDKs inhibition assay (ADP-Glo Kinase Assay), CDK4
Procedure: (2) Preparation of Test Compound:
as §1, §2
a. Preparation of ATP solution:
as §3, §4, §5, §6, §7, §8, §9, §10, §11, §12, §13, §14, §15

[4] = MDA-MB-231, 72 h, read-out: IC50 for inhibition of proliferation of human breast cancer cell line MDB-MA-231
[5] = MDA-MB-231, read-out: IC50 for inhibition of proliferation of human breast cancer cell line MDB-MA-231, 72 h incubation

CDK6/D3, sequence (Q00534 whole entry): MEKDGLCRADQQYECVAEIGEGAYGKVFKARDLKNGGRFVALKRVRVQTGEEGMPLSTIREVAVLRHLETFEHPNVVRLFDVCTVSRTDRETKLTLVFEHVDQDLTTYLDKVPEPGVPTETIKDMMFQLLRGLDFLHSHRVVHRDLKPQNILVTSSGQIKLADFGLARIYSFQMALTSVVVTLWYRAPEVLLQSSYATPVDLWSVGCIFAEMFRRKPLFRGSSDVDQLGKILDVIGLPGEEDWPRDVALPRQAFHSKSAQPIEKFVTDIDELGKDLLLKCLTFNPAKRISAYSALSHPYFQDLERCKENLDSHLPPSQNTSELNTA
CDK6/D3, sequence (P30281 whole entry partner): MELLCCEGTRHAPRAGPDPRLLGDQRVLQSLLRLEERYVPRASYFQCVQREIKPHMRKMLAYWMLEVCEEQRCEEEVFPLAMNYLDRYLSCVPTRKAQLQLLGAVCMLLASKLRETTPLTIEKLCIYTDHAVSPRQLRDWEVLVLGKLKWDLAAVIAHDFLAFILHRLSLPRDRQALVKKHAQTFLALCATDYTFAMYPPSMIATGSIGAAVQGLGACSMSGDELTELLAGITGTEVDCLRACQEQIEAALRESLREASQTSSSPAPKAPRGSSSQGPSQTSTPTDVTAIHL
CDK4/D3, sequence (P11802 whole entry): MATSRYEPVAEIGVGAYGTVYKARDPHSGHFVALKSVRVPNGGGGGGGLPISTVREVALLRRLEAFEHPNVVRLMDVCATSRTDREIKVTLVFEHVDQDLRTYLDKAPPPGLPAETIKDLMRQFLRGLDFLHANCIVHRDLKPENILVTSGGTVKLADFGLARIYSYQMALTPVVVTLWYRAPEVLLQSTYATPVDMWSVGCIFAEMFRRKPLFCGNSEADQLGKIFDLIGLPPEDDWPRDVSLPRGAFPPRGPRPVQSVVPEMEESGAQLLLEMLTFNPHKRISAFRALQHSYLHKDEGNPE
CDK4/D3, sequence (P30281 whole entry partner): as the sequence (P30281 whole entry partner) above

| SMILES | pIC50 [1] | pIC50 [3] | pIC50 [2, 5] | pIC50 [2, 4] |
| --- | --- | --- | --- | --- |
| Fc1cnc(Nc2ccc(N3CCNCC3)cn2)nc1-c1cc(F)c2nc3n(c2c1)CCCC3 [Example 13, 5-Fluoro-4-(6-fluoro-1,2,3,4-tetrahydrobenzo[4,5]imidazo[1,2-a]pyridin-8-yl)-N-(5-(piperazin-1-yl)pyridin-2-yl)pyrimidin-2-amine] | 7.20 | 7.74 |  | 5.93 |
| O=C(CO)N1CCc2nc(Nc3ncc(F)c(-c4cc(F)c5nc6n(c5c4)CCCC6)n3)ccc2C1 [Example 15, 1-(2-((5-Fluoro-4-(6-fluoro-1,2,3,4-tetrahydrobenzo[4,5]imidazo[1,2-a]pyridin-8-yl)pyrimidin-2-yl)amino)-7,8-dihydro-1,6-naphthyridin-6(5H)-yl)-2-hydroxyethan-1-one] | 7.16 | 7.55 |  | 5.91 |
| CC1(C)CCc2nc3c(F)cc(-c4nc(Nc5ccc6c(n5)CCN(C(=O)CO)C6)ncc4F)cc3n21 [Example 21, 1-(2-((5-Fluoro-4-(5-fluoro-1,1-dimethyl-2,3-dihydro-1H-benzo[d]pyrrolo[1,2-a]imidazol-7-yl)pyrimidin-2-yl)amino)-7,8-dihydro-1,6-naphthyridin-6(5H)-yl)-2-hydroxyethan-1-one] | 7.75 |  |  |  |
| CC1(C)CCc2nc3c(F)cc(-c4nc(Nc5ccc(C6CCNCC6)cn5)ncc4F)cc3n21 [Example 26] |  |  | 6.67 |  |
| CCC1Cc2nc3c(F)cc(-c4nc(Nc5ccc(N6CCNCC6)cn5)ncc4F)cc3n2C1 (stereo not shown) [Example 52, 4-(2-Ethyl-5-fluoro-2,3-dihydro-1H-benzo[d]pyrrolo[1,2-a]imidazol-7-yl)-5-fluoro-N-(5-(piperazin-1-yl)pyridin-2-yl)pyrimidin-2-amine] | 6.84 | 7.22 | 5.78 |  |
| CCN1CCC(c2ccc(Nc3ncc(F)c(-c4cc(F)c5nc6n(c5c4)C(C)CC6)n3)nc2)CC1 (stereo not shown) [Example 69, N-(5-(1-Ethylpiperidine-4-yl)pyridin-2-yl)-5-fluoro-4-(5-fluoro-1-methyl-2,3-dihydro-1H-benzo[d]pyrrolo[1,2-a]imidazol-7-yl)pyrimidin-2-amine] | 7.61 | 7.40 |  |  |
| CC1CCc2nc3c(F)cc(-c4nc(Nc5ccc(C6CCN(C)CC6)cn5)ncc4F)cc3n21 (stereo not shown) [Example 66] | 7.67 | 8.37 |  |  |

Now from value to molecule, other results behind:

| pIC50 [1] | pIC50 [3] | pIC50 [2, 5] | SMILES | pIC50 [2, 4] |
| --- | --- | --- | --- | --- |
| 8.22 | 8.05 |  | CCC1CCc2nc3c(F)cc(-c4nc(Nc5ccc(C6CCN(C)CC6)cn5)ncc4F)cc3n21 (stereo not shown) [Example 68, 4-(1-Ethyl-5-fluoro-2,3-dihydro-1H-benzo[d]pyrrolo[1,2-a]imidazolel-7-yl)-5-fluoro-N-(5-(1-methylpiperidine-4-yl)pyridin-2-yl)pyrimidin-2-amine] |  |
| 7.89 | 7.31 | 6.24 | CCN1CCN(C(=O)c2ccc(Nc3ncc(F)c(-c4cc(F)c5nc6n(c5c4)C(C)(C)CC6)n3)nc2)CC1 [Example 32, (4-Ethylpiperazin-1-yl)(6-((5-fluoro-4-(5-fluoro-1,1-dimethyl-2,3-dihydro-1H-benzo[d]pyrrolo[1,2-a]imidazol-7-yl)pyrimidin-2-yl)amino)pyridin-3-yl)methyl ketone] |  |
| 7.05 |  | 6.27 | CC1(C)CCc2nc3c(F)cc(-c4ccnc(Nc5ccc(N6CCNCC6)cn5)n4)cc3n21 [Example 23, 4-(5-Fluoro-1,1-dimethyl-2,3-dihydro-1H-benzo[d]pyrrolo[1,2-a]imidazol-7-yl)-N-(5-(piperazin-1-yl)pyridin-2-yl)pyrimidin-2-amine] |  |
| 7.26 | 8.70 | 6.89 | Cc1nc(Nc2ncc(F)c(-c3cc(F)c4nc5n(c4c3)C(C)(C)CC5)n2)ccc1N1CCNCC1 [Example 31] |  |
| 8.02 | 7.72 | 6.60 | CCC1CCc2nc3c(F)cc(-c4nc(Nc5ccc(N6CCNCC6)cn5)ncc4F)cc3n21 (stereo not shown) [Example 54, 4-(1-Ethyl-5-fluoro-2,3-dihydro-1H-benzo[d]pyrrolo[1,2-a]imidazol-7-yl)-5-fluoro-N-(5-(piperazin-1-yl)pyridin-2-yl)pyrimidin-2-amine] |  |

— patent publication US10696678B2, “Kinase inhibitor, and preparing method and pharmaceutical use thereof” (GAN & LEE PHARMACEUTICALS, priority 2015, dated 2020)
